Reference: US20120100990A1, “4 -AMINOPICOLINATES AND THEIR USE AS HERBICIDES” (SYNGENTA CROP PROTECTION LLC, priority 2009, published 2012)

Assays:
Type in all cases: in vivo
[1] = system: Alopecurus myosuroides (ALOMY); experiment: Pre-emergence biological efficacy, glasshouse pot test; conditions: 312 h, 1,000 g/ha, evaluated after 13 days, 100=total damage, 0=no damage, read-out: Percentage damage caused to weed species, pre-emergence, ALOMY
How it was run: (§1)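 Damage ratings (0 no damage to 100 total damage) were taken 13 days after treatment. Compound had been applied at 1000 or 250 g/ha as an aqueous spray from acetone/water (50:50) with 0.5% Tween 20, one day after sowing in soil.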

[2] = system: Amaranthus retroflexus (AMARE); experiment: as above; conditions: 312 h, 1,000 g/ha, evaluated after 13 days, 100=total damage, 0=no damage, read-out: Percentage damage caused to weed species, pre-emergence, AMARE
How it was run: as §1

[3] = system: Echinochloa crus-galli (ECHCG); experiment: as above; conditions: 312 h, 1,000 g/ha, evaluated after 13 days, 100=total damage, 0=no damage, read-out: Percentage damage caused to weed species, pre-emergence, ECHCG
How it was run: as §1

[4] = system: Ipomea hederaceae (IPOHE); experiment: as above; conditions: Ipomoea hederacea, 312 h, 1,000 g/ha, evaluated after 13 days, 100=total damage, 0=no damage, read-out: Percentage damage caused to weed species, pre-emergence, IPOHE
How it was run: as §1

Setaria faberi (SETFA) [5] = experiment: as above; conditions: 312 h, 1,000 g/ha, evaluated after 13 days, 100=total damage, 0=no damage, read-out: Percentage damage caused to weed species, pre-emergence, SETFA
How it was run: as §1

Solanum nigrum (SOLNI) [6] = experiment: as above; conditions: 312 h, 1,000 g/ha, evaluated after 13 days, 100=total damage, 0=no damage, read-out: Percentage damage caused to weed species, pre-emergence, SOLNI
How it was run: as §1

[7] = system: Alopecurus myosuroides (ALOMY); experiment: Post-emergence biological efficacy, glasshouse pot test; conditions: 312 h, 1,000 g/ha, evaluated after 13 days, 100=total damage, 0=no damage, read-out: Percentage damage caused to weed species, post-emergence, ALOMY
How it was run: (§2)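 Seeds are sown in pots of standard soil and grown 8 days under controlled glasshouse conditions (24/16 °C, 14 h photoperiod, 65% humidity). Seedlings are then sprayed at 1000 or 250 g/ha, kept under the same conditions with twice-daily watering, and assessed on a 0–100 damage scale after 13 days.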

[8] = system: Amaranthus retroflexus (AMARE); experiment: as above; conditions: 312 h, 1,000 g/ha, evaluated after 13 days, 100=total damage, 0=no damage, read-out: Percentage damage caused to weed species, post-emergence, AMARE
How it was run: as §2

[9] = system: Echinochloa crus-galli (ECHCG); experiment: as above; conditions: 312 h, 1,000 g/ha, evaluated after 13 days, 100=total damage, 0=no damage, read-out: Percentage damage caused to weed species, post-emergence, ECHCG
How it was run: as §2

[10] = system: Ipomea hederaceae (IPOHE); experiment: as above; conditions: Ipomoea hederacea, 312 h, 1,000 g/ha, evaluated after 13 days, 100=total damage, 0=no damage, read-out: Percentage damage caused to weed species, post-emergence, IPOHE
How it was run: as §2

Setaria faberi (SETFA) [11] = experiment: as above; conditions: 312 h, 1,000 g/ha, evaluated after 13 days, 100=total damage, 0=no damage, read-out: Percentage damage caused to weed species, post-emergence, SETFA
How it was run: as §2

Solanum nigrum (SOLNI) [12] = experiment: as above; conditions: 312 h, 1,000 g/ha, evaluated after 13 days, 100=total damage, 0=no damage, read-out: Percentage damage caused to weed species, post-emergence, SOLNI
How it was run: as §2

| SMILES | pest or weed control at 1000 g/ha [1] | pest or weed control at 1000 g/ha [2] | pest or weed control at 1000 g/ha [3] | pest or weed control at 1000 g/ha [4] | pest or weed control at 1000 g/ha (Setaria faberi (SETFA) [5]) | pest or weed control at 1000 g/ha (Solanum nigrum (SOLNI) [6]) | pest or weed control at 1000 g/ha [7] | pest or weed control at 1000 g/ha [8] | pest or weed control at 1000 g/ha [9] | pest or weed control at 1000 g/ha [10] | pest or weed control at 1000 g/ha (Setaria faberi (SETFA) [11]) | pest or weed control at 1000 g/ha (Solanum nigrum (SOLNI) [12]) |
| --- | --- | --- | --- | --- | --- | --- | --- | --- | --- | --- | --- | --- |
| COC(=O)c1nc(Cl)cc(NCc2ccco2)c1C1CC1 [Compound 26-7, 6-chloro-3-cyclopropyl-4-[(furan-2-ylmethyl)-amino]-pyridine-2-carboxylic acid methyl ester] | 10% | 60% | 10% | 70% | 10% | 80% | 0% | 40% | 0% | 30% | 0% | 70% |
| COC(=O)c1nc(Cl)cc(NCC2CCCCCCC2)c1Cl [Compound 69-2, 4-Cyclooctylmethyl-amino-3,6-dichloro-pyridine-2-carboxylic acid methyl ester] | 20% | 90% | 10% | 80% | 10% | 100% | 10% | 100% | 0% | 70% | 0% | 90% |
| C=Cc1c(C(=O)OC)nc(Cl)c(Cl)c1NCc1ccccc1[N+](=O)[O-] [Compound 15-39, 5,6-Dichloro-3-ethenyl-4-[(2-nitrophenylmeth-yl)-amino]-pyridine-2-carboxylic acid methyl ester] | 30% | 100% | 80% | 90% | 40% | 100% | 60% | 100% | 60% | 90% | 80% | 100% |
| COC(=O)c1nc(Cl)cc(NCc2cc(C)nn2C)c1Cl [Compound 77-2, 3,6-Dichloro-4-[(1,3-dimethylpyrazol-5-ylmethyl)-amino]-pyridine-2-carboxylic acid methyl ester] | 60% | 100% | 20% | 90% | 70% | 100% | 50% | 100% | 30% | 80% | 80% | 100% |
| C=Cc1c(NCc2ccccc2[N+](=O)[O-])cc(Cl)nc1C(=O)OC [Compound 15-12, 6-Chloro-3-ethenyl-4-[(2-nitrophenylmeth-yl)-amino]-pyridine-2-carboxylic acid methyl ester] | 70% | 100% | 90% | 100% | 80% | 100% | 80% | 100% | 70% | 60% | 100% | 90% |
| COC(=O)c1nc(Cl)cc(NCc2ccco2)c1Br [Compound 26-17, 3-Bromo-6-chloro-4-[(furan-2-ylmethyl)-amino]-pyridine-2-carboxylic acid methyl ester] | 50% | 100% | 50% | 100% | 80% | 100% | 70% | 100% | 60% | 60% | 80% | 90% |
